# According to patent US6750224B1, “Antibacterial optically pure benzoquinolizine carboxylic acids, processes, compositions and methods of treatment” (priority 1999, dated 2004):
# How the values were obtained:
# [1] = Phlebitis on repeated i.v. administration in rats; assay type: in vivo; conditions: doses double those of the sodium salt
# Source text: This feature would make S-(−)-9-fluoro-6,7-dihydro-8-(4-hydroxypiperidin-1-yl)-5-methyl-1-oxo-1H,5H- benzo[i,j]quinolizine-2-carboxylic acid arginine salt 0.25 H2O and S-(−)-9-fluoro-6,7-dihydro-8-[4-(hydroxy)-1-piperidin-1-yl)-5-methyl-1-oxo-1H,5H-benzo[i,j]quinolizine-2-carboxylic acid arginine salt 0.75 H2O suitable for long term i.v. administration which is commonly undertaken for critically ill patients or patients in intensive care unit.
# [2] = system: S.aureus strain bearing Nor A efflux pump; assay type: cell-based; conditions: Nor A efflux pump strain vs strain devoid of efflux pump
# Description: Using this set of MIC values, % loss in potency due to efflux was calculated for each of the fluoroquinolone in Table 5
# MRSA STA-4 = assay: In-vitro antimicrobial activity test (MIC, NCCLS); assay type: cell-based, Staphylococcus aureus
# Source text: (§1) The test method was in accordance with the standard NCCLS protocol.
# [3] = system: Mupirocin-resistant Staph STA-34; assay: In-vitro antimicrobial activity test (MIC, NCCLS); assay type: cell-based, Staphylococcus aureus
# Source text: as §1
# MRSE STE-22 = assay: In-vitro antimicrobial activity test (MIC, NCCLS); assay type: cell-based, Staphylococcus epidermidis
# Source text: as §1
# Bacteroides fragilis = assay: In-vitro antimicrobial activity test (MIC, NCCLS); assay type: cell-based
# Source text: as §1
# [4] = system: Chryseobacterium meningosepticum; assay: In-vitro antimicrobial activity test (MIC, NCCLS); assay type: cell-based
# Source text: as §1
# Corynebacterium jeikeium = assay: In-vitro antimicrobial activity test (MIC, NCCLS); assay type: cell-based
# Source text: as §1
# [5] = system: Enterococcus faecalis ATCC 29212; assay: In-vitro antimicrobial activity test (MIC, NCCLS); assay type: cell-based
# Source text: as §1
# Enterococcus faecium = assay: In-vitro antimicrobial activity test (MIC, NCCLS); assay type: cell-based
# Source text: as §1
# [6] = system: Escherichia coli ATCC 25922; assay: In-vitro antimicrobial activity test (MIC, NCCLS); assay type: cell-based
# Source text: as §1
# Haemophilus influenzae = assay: In-vitro antimicrobial activity test (MIC, NCCLS); assay type: cell-based
# Source text: as §1
# Mycobacterium avium = assay: In-vitro antimicrobial activity test (MIC, NCCLS); assay type: cell-based
# Source text: as §1
# [7] = system: Mycobacterium intracellulare; assay: In-vitro antimicrobial activity test (MIC, NCCLS); assay type: cell-based
# Source text: as §1
# [8] = system: Mycobacterium tuberculosis ATCC 27294; assay: In-vitro antimicrobial activity test (MIC, NCCLS); assay type: cell-based
# Source text: as §1
# Propioni bacterium acnes = assay: In-vitro antimicrobial activity test (MIC, NCCLS); assay type: cell-based
# Source text: as §1
# Pseudomonas aeruginosa = assay: In-vitro antimicrobial activity test (MIC, NCCLS); assay type: cell-based
# Source text: as §1
# Serratia marcescens = assay: In-vitro antimicrobial activity test (MIC, NCCLS); assay type: cell-based
# Source text: as §1
# [9] = system: Staphylococcus aureus ATCC 25923; assay: In-vitro antimicrobial activity test (MIC, NCCLS); assay type: cell-based
# Source text: as §1
# [10] = system: Streptococcus pneumoniae ATCC 6303; assay: In-vitro antimicrobial activity test (MIC, NCCLS); assay type: cell-based
# Source text: as §1
# Streptococcus pyogenes = assay: In-vitro antimicrobial activity test (MIC, NCCLS); assay type: cell-based
# Source text: as §1
# [11] = system: Viridans group Streptococci; assay: In-vitro antimicrobial activity test (MIC, NCCLS); assay type: cell-based
# Source text: as §1
# Acinetobacter 3109 = assay: Effect of pH on potency of fluoroquinolones (MIC at pH 5.5 and 7.0); assay type: cell-based; conditions: MIC pH 7 vs pH 5.5
# Source text: (§2) The test method was in accordance with the standard NCCLS protocol employing test media adjusted at pH 5.5 and 7.0.
# E. coli 2015 = assay: as above; assay type: cell-based; conditions: MIC pH 7 vs pH 5.5
# Source text: as §2
# E. coli 25922 = assay: as above; assay type: cell-based; conditions: MIC pH 7 vs pH 5.5
# Source text: as §2
# E. faecalis = assay: as above; assay type: cell-based; conditions: MIC pH 7 vs pH 5.5
# Source text: as §2
# Klebsiella 24037 = assay: as above; assay type: cell-based; conditions: MIC pH 7 vs pH 5.5
# Source text: as §2
# P. mirabilis 37 = assay: as above; assay type: cell-based; conditions: MIC pH 7 vs pH 5.5
# Source text: as §2
# P. rettgeri N 1764 = assay: as above; assay type: cell-based; conditions: MIC pH 7 vs pH 5.5
# Source text: as §2
# P. vulgaris 66 = assay: as above; assay type: cell-based; conditions: MIC pH 7 vs pH 5.5
# Source text: as §2
# Ps. Aeruginosa = assay: as above; assay type: cell-based; conditions: MIC pH 7 vs pH 5.5
# Source text: as §2
# S. aureus 1199-B = assay: as above; assay type: cell-based; conditions: MIC pH 7 vs pH 5.5
# Source text: as §2
# S. aureus 25923 = assay: as above; assay type: cell-based; conditions: MIC pH 7 vs pH 5.5
# Source text: as §2
# Serratia marcescens 2702 = assay: as above; assay type: cell-based; conditions: MIC pH 7 vs pH 5.5
# Source text: as §2
# Phototoxicity studies = conditions: in vivo
structure (smiles),measurement,setting,value
"C[C@H]1CCc2c(N3CCC(O)CC3)c(F)cc3c(=O)c(C(=O)O)cn1c23.N=C(N)NCCC[C@H](N)C(=O)O.O [Example 7, S-(−)-9-fluoro-6,7-dihydro-8-(4-hydroxypiperidin-1-yl)-5-methyl-1-oxo-1H,5H-benzo[i,j]quinolizine-2-carboxylic acid, arginine salt 0.25 H2O]",phlebitis,[1],did not cause phlebitis
COc1c(N2CCNC(C)C2)c(F)cc2c(=O)c(C(=O)O)cn(C3CC3)c12 (stereo not drawn) [Gatifloxacin],% loss in potency for S. aureus bearing Efflux pump,[2],75%
CO/N=C1\CN(c2nc3c(cc2F)c(=O)c(C(=O)O)cn3C2CC2)CC1CN (stereo not drawn) [Gemifloxacin],% loss in potency for S. aureus bearing Efflux pump,[2],75%
C[C@H]1COc2c(N3CCN(C)CC3)c(F)cc3c(=O)c(C(=O)O)cn1c23 [Levofloxacin],MIC,MRSA STA-4,> 12.5 µg/mL
same,MIC,[3],12.5 µg/mL
same,MIC,MRSE STE-22,> 12.5 µg/mL
same,MIC,Bacteroides fragilis,6.25 µg/mL
same,MIC,[4],6.25 µg/mL
same,MIC,Corynebacterium jeikeium,0.4 µg/mL
same,MIC,[5],0.8 µg/mL
same,MIC,Enterococcus faecium,1.56 µg/mL
same,MIC,[6],0.05 µg/mL
same,MIC,Haemophilus influenzae,0.03 µg/mL
same,MIC,Mycobacterium avium,12.5 µg/mL
same,MIC,[7],0.8 µg/mL
same,MIC,[8],0.4 µg/mL
same,MIC,Propioni bacterium acnes,1 µg/mL
same,MIC,Pseudomonas aeruginosa,3.12 µg/mL
same,MIC,Serratia marcescens,0.1 µg/mL
same,MIC,[9],0.2 µg/mL
same,MIC,[10],0.8 µg/mL
same,MIC,Streptococcus pyogenes,0.4 µg/mL
same,MIC,[11],1.56 µg/mL
same,"% change in potency at pH 5.5, loss (−)/gain (+)",Acinetobacter 3109,−94%
same,"% change in potency at pH 5.5, loss (−)/gain (+)",E. coli 2015,−87.5%
same,"% change in potency at pH 5.5, loss (−)/gain (+)",E. coli 25922,−96%
same,"% change in potency at pH 5.5, loss (−)/gain (+)",E. faecalis,−75%
same,"% change in potency at pH 5.5, loss (−)/gain (+)",Klebsiella 24037,−94%
same,"% change in potency at pH 5.5, loss (−)/gain (+)",P. mirabilis 37,−94%
same,"% change in potency at pH 5.5, loss (−)/gain (+)",P. rettgeri N 1764,−94%
same,"% change in potency at pH 5.5, loss (−)/gain (+)",P. vulgaris 66,−94%
same,"% change in potency at pH 5.5, loss (−)/gain (+)",Ps. Aeruginosa,−50%
same,"% change in potency at pH 5.5, loss (−)/gain (+)",S. aureus 1199-B,−75%
same,"% change in potency at pH 5.5, loss (−)/gain (+)",S. aureus 25923,−75%
same,"% change in potency at pH 5.5, loss (−)/gain (+)",Serratia marcescens 2702,−98%
C/C(=C\C(=O)OCCCCCCCCC(=O)O)C[C@@H]1OC[C@H](C[C@@H]2O[C@H]2[C@@H](C)[C@H](C)O)[C@@H](O)[C@H]1O [Mupirocin],MIC,MRSA STA-4,0.4 µg/mL
same,MIC,[3],> 400 µg/mL
same,MIC,MRSE STE-22,0.2 µg/mL
same,MIC,Corynebacterium jeikeium,> 12.5 µg/mL
same,MIC,[5],> 12.5 µg/mL
same,MIC,Enterococcus faecium,> 0.8 µg/mL
same,MIC,Propioni bacterium acnes,> 1000 µg/mL
same,MIC,[9],0.4 µg/mL
same,MIC,[10],0.2 µg/mL
same,MIC,Streptococcus pyogenes,0.025 µg/mL
same,MIC,[11],0.2 µg/mL
CCn1cc(C(=O)O)c(=O)c2cc(F)c(N3CCNCC3)cc21 [Norfloxacin],% loss in potency for S. aureus bearing Efflux pump,[2],97%
C[C@@H]1CN(c2c(F)c(N)c3c(=O)c(C(=O)O)cn(C4CC4)c3c2F)C[C@H](C)N1 [Sparfloxacin],"phototoxic dosage, times lower than S-(−)-Nadifloxacin",Phototoxicity studies,25 times
